pIC50: −log10 of the molar value. Counter-ions that a name gives are not always drawn.

For data set [1], the target named is α7-subtype of nicotinic receptors (Rattus norvegicus, UniProt Q05941). The data set is described as follows: biochemical. It is filed as binding.
Chain of α7-subtype of nicotinic receptors (Q05941 23-502): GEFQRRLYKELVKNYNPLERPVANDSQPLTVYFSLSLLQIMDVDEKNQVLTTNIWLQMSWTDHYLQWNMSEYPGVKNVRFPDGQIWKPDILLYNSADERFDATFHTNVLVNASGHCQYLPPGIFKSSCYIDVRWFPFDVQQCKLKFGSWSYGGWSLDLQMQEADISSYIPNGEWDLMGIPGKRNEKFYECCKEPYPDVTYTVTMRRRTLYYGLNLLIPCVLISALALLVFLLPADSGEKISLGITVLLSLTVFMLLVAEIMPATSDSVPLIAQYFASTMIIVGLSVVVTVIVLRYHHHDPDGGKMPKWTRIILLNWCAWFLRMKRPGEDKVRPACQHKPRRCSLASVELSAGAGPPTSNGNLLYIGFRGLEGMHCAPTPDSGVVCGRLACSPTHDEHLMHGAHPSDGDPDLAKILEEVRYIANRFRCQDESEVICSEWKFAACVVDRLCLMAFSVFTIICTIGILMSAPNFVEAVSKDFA

One may read the melting point as the temperature of the solid-liquid transition. `CN1C2CCCC1CN(c1ccc(-c3ccccc3)nn1)C2` (as salt: fumaric acid salt) [Compound A1, 9-Methyl-3-(6-phenyl-pyridazin-3-yl)-3,9-diaza-bicyclo[3.3.1]nonane] yielded a melting point of 187 to 188 °C. For orientation: pIC50 means −log10 of the IC50, conventionally taken in molar units. In the case of `CN1C2CCCC1CN(c1ccc(-c3ccccc3)nn1)C2` [Compound A1, 9-Methyl-3-(6-phenyl-pyridazin-3-yl)-3,9-diaza-bicyclo[3.3.1]nonane], in data set [1], the pIC50 is > 6.00. Regarding `CN1C2CCCC1CN(c1ccc(-c3ccsc3)nn1)C2` [Compound C1], in data set [1], the pIC50 was > 6.00.

For `CCN1C2CCCC1CN(c1ccc(-c3ccccc3)nn1)C2` [Compound D1, 9-Ethyl-3-(6-phenyl-pyridazin-3-yl)-3,9-diaza-bicyclo[3.3.1]nonane], the negative logarithm of the IC50 (pIC50) in data set [1] was > 6.00.
